How the values were obtained:
SH-SY5Y cells = test: Killing of SH-SY5Y cells by ETC inhibitors; assay type: cell-based; conditions: for concentration range killing SH-SY5Y cells: LDH leakage and DNA fragmentation
Protocol: Step 5. Screening in mammalian cells treated with inhibitors of specific complexes of the ETC.
Further screening in mammalian cells treated with inhibitors of specific complexes of the ETC is conducted.

yeast lacking Yfh1p = test: Yeast-based screening assay (WST-1 tetrazolium dye reduction); assay type: cell-based; conditions: glycerol medium, 72 h, OD450, single dose 50 uM, activity threshold >1.32 fold increase in absorbance
Protocol: The aim of this assay is to identify compounds that can improve mitochondrial function in yeast lacking Yfh1p grown in a non-fermentable growth medium. The yeast Yfh1p expression construct used in this study has a galactose-inducible, glucose-repressible promoter driving Yfh1p production. Yfh1p is expressed when yeast are grown in the presence of galactose and inhibited when they are grown in the presence of dextrose. Growing the cells in the presence of dextrose not only turns off the expression of Yfh1p, but also leads to the depletion of Yfh1p in the cells. Transferring the Yfh1p-depleted cells into a non-fermentable, glycerol-based medium dictates that the yeast must use an oxidative pathway. […] Cleavage of the tetrazolium salt to formazan is accompanied by an increase in absorbance at 450 nm.
Compounds in the single dose assay were evaluated on the basis of Fold Induction compared to yeast only, and those in the dose response assay on percent activation, i.e. percent induction of tetrazolium dye reduction in yeast grown in a non-fermentable growth medium. Percent activation was calculated using the optical density in control wells with cells treated with positive control compound (25 uM methyl 4-(1, 2, 4, 5-tetraazin-3-yl) phenyl ether (MLSMR External ID: MLS000550612; PubChem SID: 14718875)) as full induction of tetrazolium dye reduction (100% activation), and wells with cells grown in medium without methyl 4-(1, 2, 4, 5-tetraazin-3-yl) phenyl ether as an indicator of 0% activation. Library compounds were screened at 50 uM. From the 50 uM single dose assay, 1250 compounds with significant tetrazolium dye reduction were selected for confirmatory dose response assay. These compounds were screened in a 10-point dilution series ranging from 0.01 to 100 uM.
The following screening protocol was followed. Yeast cells containing an inducible/repressible promoter for Yfh1p expression were cultured in induction medium (Yfh1 on) with Galactose as the carbon source, and then shifted to repression medium (Yfh1 off) with Dextrose as the carbon source (for 24 hours) to allow Yfh1 protein to decay. The cells were then incubated for 24 h in respiration-only medium (Yfh1 off) with Glycerol as the carbon source to allow cells to equilibrate, and then plated in 384 well plates in respiration-only medium (Yfh1 off) with glycerol as carbon source, in the presence of Tetrazolium dye (WST-1) for 72 hours.
Preparation of Assay • 1. Cells were streaked out on a YPGal agar plate and grown inverted for 3 days at 30 C. • 2. A colony was selected and 10 mL of YPGal medium inoculated and grown over night at 30 C with shaking. • 3. The cells were counted on a coulter counter, centrifuged at 1400 g for 5 min in dextrose (CSMM-D) medium, washed twice to remove all galactose, and resuspended in CSMM-D medium at a cell density of 2 to the power of 5 cells/mL. • 4. Frozen stocks were prepared at this point, in dextrose medium. For these dextrose stock solutions, enough culture was grown in dextrose media over night with shaking at 30 C, to get a cell density of ˜2 to the power of 7 cells/mL. The cells were centrifuged at 1400 g for 5 min and the pellet resuspended in glycerol freezing medium at a cell density of 2 to the power of 8 cells/mL. • 5. The day before the screen, frozen culture was thawed at room temperature and resuspended in glycerol (CSMM-G) medium. • 6. The culture was grown over night at 30 C with shaking and the cells counted and diluted in CSMM-G medium for a final cell density of 4 to the power of 6 cells/mL. • 7. Methyl 4-(1, 2, 4, 5-tetraazin-3-yl) phenyl ether (positive control), CSMM-G medium alone (negative control) and compounds were plated with DMSO at 200× concentration (final concentrations: methyl 4-(1, 2, 4, 5-tetraazin-3-yl) phenyl ether 25 uM, compounds 50 uM, DMSO 0.5%) in 384-well plates: 125 nL/well. For the dose response assay, compounds were plated in a 10-point dilution series ranging from 0.01 to 100 uM, at 1% DMSO. • 8. […]

I154F FA cells = test: I154F frataxin point-mutation model, rescue from FAC and/or BSO; assay type: cell-based, murine
From the text: 2. Preliminary testing in the I154F frataxin point-mutation model determines whether test compounds can rescue I154F FA cells from lethal concentrations of FAC and/or BSO. Among the mammalian-cell models that have, or recapitulate, the genetic defects underlying FA, by far the most robust (and best validated) is the I154F murine frataxin point-mutation model developed by Puccio and colleagues (Calmels, N. et al.), the first cellular model based on frataxin missense mutations that reproduces spontaneously the defects associated with Friedreich ataxia (PLoS One 4, e6379 (2009)). […] This model is also extremely stable, with phenotypes unchanged after months of continuous culture. In contrast, the mutations in available primary human FA fibroblasts are GAA repeat expansions in the first intron of the FXN gene; occasional cells in which these expansions contract have a growth advantage and take over the culture, diluting the phenotype and increasing variance in various measures of compound efficacy.
In another screen, testing was conducted in the I154F point-mutation model as described above, to determine whether test compounds could rescue I154F FA cells from lethal or sublethal concentrations of FAC and/or BSO. Effective in this screen were the following compounds: N-[(5-chloro-8-hydroxyquinolin-7-yl)-thiophen-2-ylmethyl]-3-phenylpropanamide, N-[(5-chloro-8-hydroxyquinolin-7-yl)-thiophen-2-ylmethyl]pentanamide, N-[(5-chloro-8-hydroxyquinolin-7-yl)-furan-2-ylmethyl]-3-phenylpropanamide, N-[(5-chloro-8-hydroxyquinolin-7-yl)-furan-2-ylmethyl]propanamide, N-[(5-chloro-8-hydroxyquinolin-7-yl)-furan-2-ylmethyl]pentanamide, N-[(5-chloro-8-hydroxyquinolin-7-yl)-tolyl]-3-phenylpropanamide, N-[(5-chloro-8-hydroxyquinolin-7-yl)-(3-methoxyphenyl)methyl]-3-phenylpropanamide, N-[(5-chloro-8-hydroxyquinolin-7-yl)-(4-dimethylaminophenyl)methyl]-3-phenylpropanamide, N-[(5-chloro-8-hydroxyquinolin-7-yl)-(4-chlorophenyl)methyl]-3-phenylpropanamide, N-[(5-chloro-8-hydroxyquinolin-7-yl)-(3-chlorophenyl)methyl]-3-phenylpropanamide, N-[(5-chloro-8-hydroxyquinolin-7-yl)-(2-chlorophenyl)methyl]-3-phenylpropanamide, N-[(5-chloro-8-hydroxyquinolin-7-yl)-(3,4-dimethoxyphenyl)methyl]-3-phenylpropanamide, N-[(5-chloro-8-hydroxyquinolin-7-yl)-(2,4-dimethoxyphenyl)methyl]-3-phenylpropanamide, N-[(5-chloro-8-hydroxyquinolin-7-yl)-(3,4,5-trimethoxyphenyl)methyl]-3-phenylpropanamide, N-[(5-chloro-8-hydroxyquinolin-7-yl)-(2-bromophenyl)methyl]-3-phenylpropanamide, N-[(5-chloro-8-hydroxyquinolin-7-yl)-p-tolyl-methyl]-3-phenylpropanamide, N-[(5-chloro-8-hydroxyquinolin-7-yl)-(2-hydroxyphenyl)methyl]-3-phenylpropanamide (1a-18), and N-[(5-chloro-8-hydroxyquinolin-7-yl)-(4-methoxyphenyl)methyl]-3-phenylpropanamide.

complex I = test: Complex I inhibition in SH-SY5Y cells; assay type: cell-based
Protocol: Step 5. Screening in mammalian cells treated with inhibitors of specific complexes of the ETC. […] Antimycin A and oligomycin kill SH-SY5Y cells in the high nM range, as assessed by LDH leakage and DNA fragmentation.
Further screening in mammalian cells treated with inhibitors of specific complexes of the ETC is conducted. […] Antimycin A and oligomycin kill SH-SY5Y cells in the high nM range, as assessed by LDH leakage and DNA fragmentation.

[1] = test system: superoxide dismutase activity; test: Superoxide dismutase activity in vitro after metal pre-loading (Fluka assay kit); assay type: biochemical
From the text: 3. Evaluate the catalytic activity of the compound by pre-loading with manganese, iron, or other metal and assaying superoxide dismutase and/or catalase activity in vitro. This assay helps identify a possible mechanism of action that would help explain the unusual combination of high potency, and high specificity, of the compounds embodied herein. […] Yet compounds that act catalytically are usually relatively non-specific, whereas the compounds embodied herein were confirmed active in only one assay (the FA yeast assay mentioned above) of 168 high-throughput screening assays in which they have been tested to date. With no duty to disclose the mechanism of action of the compounds embodied here and without being bound based thereon, it is hypothesized that the compounds embodied herein are chelating iron within cells and acting as superoxide dismutase (SOD) and/or catalase mimetics.
In a further evaluation, the catalytic activity of the test compound was measured by pre-loading with manganese, or various forms of iron, or other metals, and assaying superoxide dismutase activity in vitro using an assay kit from Fluka. Control levels of inhibition of SOD activity was about 4.5%, and 300 nM compound N-[(5-chloro-8-hydroxyquinolin-7-yl)-thiophen-2-ylmethyl]-3-phenylpropanamide pre-loaded with manganese about 5%. However, preloading with iron acetate increased inhibition to about 40%.

Antimycin A
concentration range killing SH-SY5Y cells (SH-SY5Y cells): high nM range

CCCCC(=O)NC(c1cccs1)c1cc(Cl)c2cccnc2c1O (stereo not shown) [N-[(5-chloro-8-hydroxyquinolin-7-yl)-thiophen-2-ylmethyl]pentanamide]
active in the screen (tetrazolium dye reduction) (yeast lacking Yfh1p): active
rescue of I154F FA cells from lethal or sublethal concentrations of FAC and/or BSO (I154F FA cells): Effective

CCC(=O)NC(c1cccs1)c1cc([N+](=O)[O-])c2cccnc2c1O (stereo not shown) [N-[(8-hydroxy-5-nitro-quinolin-7-yl)-thiophen-2-yl-methyl]-propionamide]
active in the screen (tetrazolium dye reduction) (yeast lacking Yfh1p): active

CCCC(=O)NC(c1ccco1)c1cc([N+](=O)[O-])c2cccnc2c1O (stereo not shown) [N-[2-furyl(8-hydroxy-5-nitro-7-quinolinyl)methyl]butanamide]
active in the screen (tetrazolium dye reduction) (yeast lacking Yfh1p): active

CC[C@H]1/C=C/C=C/C[C@@H](C)[C@H](O)[C@@](C)(O)C(=O)[C@@H](C)[C@H](O)[C@@H](C)C(=O)[C@@H](C)[C@H](O)[C@@H](C)/C=C/C(=O)O[C@@H]2[C@H](C)[C@H](CC1)O[C@]1(CC[C@H](C)[C@H](C[C@@H](C)O)O1)[C@H]2C [oligomycin]
concentration range killing SH-SY5Y cells (SH-SY5Y cells): high nM range

C=C(C)[C@H]1Cc2c(ccc3c2O[C@@H]2COc4cc(OC)c(OC)cc4[C@@H]2C3=O)O1 [Rotenone]
concentration range inhibiting complex I (complex I): nM range
death (SH-SY5Y cells; trypan blue exclusion, after 7 days at 60 μM): 90%

O=C(CCc1ccccc1)NC(c1cccs1)c1cc(Cl)c2cccnc2c1O (stereo not shown) [N-[(5-chloro-8-hydroxyquinolin-7-yl)-thiophen-2-ylmethyl]-3-phenylpropanamide]
active in the screen (tetrazolium dye reduction) (yeast lacking Yfh1p): active
inhibition of SOD activity ([1]; 300 nM compound pre-loaded with manganese, control about 4.5%): about 5%
increase in inhibition by iron ([1]; iron acetate versus manganese pre-loading): eight-fold
inhibition of SOD activity ([1]; preloading with iron acetate): about 40%
rescue of I154F FA cells from lethal or sublethal concentrations of FAC and/or BSO (I154F FA cells): Effective

From patent publication US10745390B2, “Small molecule activators of mitochondrial function” (THE TRUSTEES OF THE UNIVERSITY OF PENNSYLVANIA, priority 2008, dated 2020)
